Measurements taken from patent publication US20100075856A1, “METHOD FOR INCREASING THE DRY BIOMASS OF PLANTS” (BASF SE, priority 2006, published 2010).

What was measured:
Format in all cases: in vivo
[1] = test system: Soybean of the variety Conquista; test: Biomass of soybean grains, field trial, free disease conditions (example 2.1); conditions: spray, epoxiconazole pre-treatment, grains 13 to 18% residual moisture
Experimental: (§1) Soybean of the variety Conquista was cultivated under customary conditions at Campinas (Brazil) in 2005/2006. One part of the trial was treated with pyraclostrobin (in the form of the commercially available product F500 from BASF; diluted with water to a concentration of 0.42 g/l) at the growing stage 61/62 and the other part at GS 65/67 by spraying about 350 l/ha (150 g of active compound per ha). Control plants were treated at GS 61/62 and 65/67, respectively, with a formulation according to that of F500 but without the active compound pyraclostrobin (“blank formulation”). One week prior to the treatment either with the active formulation or with the blank formulation, the plants were treated with epoxiconazole in order to ensure absence of fungal stress. 56 days after the application at GS 65/67, the plants were harvested and the soybean grains having a residual moisture content of 13 to 18% by weight, based on the total weight of the grains, were weighed.

[2] = test system: Corn of the cultivar DKB 390; test: Biomass of corn grains, field trial, free disease conditions (example 1.1); conditions: corn DKB 390, 150 g of active compound per ha, spray, epoxiconazole pre-treatment, grains 14 to 20% residual moisture
Experimental: (§2) Corn of the cultivar DKB 390 was cultivated under customary conditions (150 kg/ha nitrogen) at Campinas (Brazil) in 2005/2006. One part of the trial was treated with pyraclostrobin (in the form of the commercially available product F500 from BASF; diluted with water to a concentration 0.5 g/l) at the growing stage 34/35 and the other part at GS 55/57 by spraying about 300 l/ha (150 g of active compound per ha). Control plants were treated at GS 35/35 and 55/57, respectively, with a formulation according to that of F500 but without the active compound pyraclostrobin (“blank formulation”). One week prior to the treatment either with the active formulation or with the blank formulation, the plants were treated with epoxiconazole in order to ensure absence of fungal stress. 55 days after the application at GS 55/57, the plants were harvested and the corn grains having a residual moisture content of 14 to 20% by weight, based on the total weight of the grains, were weighed.

[3] = test system: Corn of the cultivar DKB 390; test: Biomass of corn grains, field trial, disease conditions (example 1.2); conditions: corn DKB 390, 150 g of active compound per ha, without epoxiconazole pre-treatment, grains 14 to 22% residual moisture
Experimental: as §2
The experiments were carried out according to example 1.1, however without the epoxiconazole pre-treatment. Moreover, the concentration of pyraclostrobin in the spray liquor was 1 g/l and 150 l/ha were sprayed (150 g of active compound per ha). The residual moisture content of the grains was 14 to 22% by weight, based on the total weight of the grains.

[4] = test system: corn of the cultivar DKB 455; test: Biomass of corn grains, field trial, free disease conditions (example 1.4)
Experimental: as §2
The experiments were carried out according to example 1.1, however using corn of the cultivar DKB 455.

[5] = test system: Corn of the cultivar DKB 390; test: Biomass of corn grains, field trial, free disease conditions, another field (example 1.3); conditions: corn DKB 390, another field
Experimental: as §2
The experiments were carried out according to example 1.1, however using another field.

[6] = test system: Soybean of the variety Conquista; test: Biomass of soybean grains, field trial, disease conditions (example 2.2); conditions: without epoxiconazole pre-treatment, grains 13 to 22% residual moisture
Experimental: as §1
The experiments were carried out according to example 2.1, however without the epoxiconazole pre-treatment. The residual moisture content was 13 to 22% by weight, based on the total weight of the grains.

[7] = treated at GS 61/62, 150 g of active compound per ha
[8] = treated at GS 65/67, 150 g of active compound per ha

Question: With pyraclostrobin as the substance, how does the Yield [1, 7] read?
Answer: 2254 kg/ha

Question: What about the Yield [1, 8] of the same substance?
Answer: 2209 kg/ha

Question: And the Yield ([2]; treated at GS 34/35)?
Answer: 10.4 ton/ha

Question: What about the Yield ([2]; treated at GS 55/57) of the same substance?
Answer: 10.6 ton/ha

Question: And the Yield ([3]; treated at GS 34/35)?
Answer: 8.7 ton/ha

Question: What about the Yield ([3]; treated at GS 55/57) of the same substance?
Answer: 8.8 ton/ha

Question: What about the Yield ([4]; corn DKB 455, treated at GS 34/35, 150 g of active compound per ha) of the same substance?
Answer: 8.6 ton/ha

Question: What about the Yield ([4]; corn DKB 455, treated at GS 55/57, 150 g of active compound per ha) of the same substance?
Answer: 9.2 ton/ha

Question: What about the Yield ([5]; treated at GS 34/35, 150 g of active compound per ha) of the same substance?
Answer: 8.0 ton/ha

Question: And the Yield ([5]; treated at GS 55/57, 150 g of active compound per ha)?
Answer: 8.3 ton/ha

Question: What about the Yield [6, 7] of the same substance?
Answer: 2163 kg/ha

Question: What about the Yield [6, 8] of the same substance?
Answer: 2120 kg/ha
